This is an account of results in US20030225047A1, “Sulfatase inhibiting progestogen-only contraceptive regimens” (priority 2002, published 2003).

SMILES strings stand for the structures. Where only a bound is given, the exact number is not on record here.

For data set [1], the system named is conversion of E1S to E2 (sulfatase activity) in T-47D breast cancer cell line. Nature of the data set: Conversion of [3H]-E1S to E2 in T-47D human mammary cancer cells. As to conditions: for inhibition at 0.005 µM / inhibition at 0.5 µM / inhibition at 50 µM / IC50: Homo sapiens, T47D; for inhibition at 0.005 µM / inhibition at 0.5 µM / inhibition at 50 µM: mean ± SEM; for IC50: non-linear regression analysis; for E2 formed: 5×10^−9 mol/l [3H]-E1S, control 1805 ± 152. It counts as cell-based. As for the experimental part: (§1) [6,7-^3H(N)]-estrone sulfate (^3H-E1S), ammonium salt (sp. act. 53 Ci/mmol) and [4-^14C]-estradiol (^14C-E2) (sp. act. 57 mCi/mmol) were purchased from New England Nuclear Division (DuPont de Nemours, Les Ulls, France). The purity of the radioisotopes was assessed by thin-layer chromatography (TLC) in the appropriate system before use. E1S, ammonium salt, unlabeled E1and E2, (analytical grade) were obtained from Sigma-Aldrich Chimle, (St Quentin Fallavier, France). 17-deacetylnorgestimate (NGMN; 13-ethyl-17-hydroxy-18,19-dinor-17α-pregn-4-en-20-yn-3-one oxime) was a gift from R. W. Johnson Pharmaceutical Research Institute, Medicinal Chemistry Department, (Raritan, N.J., USA); medroxyprogesterone acetate (MPA, 17α-acetoxy-6α-methylprogesterone) was obtained from Sigma-Aldrich Chimie. All other chemicals were of the highest grade commercially available.
(§2) The hormone-dependent MCF-7 and T-47D human mammary cancer cell lines were grown in Eagle's Minimal Essential Medium (MEM) buffered with 10 mmol/l HEPES (pH 7.6), supplemented with 2 mmol/l L-glutamine, 100 U/ml penicillin-streptomycin and 5% fetal calf serum (FCS) (A.T.G.C., Marne-la-Vallée, France) for T-47D, or 10% FCS for MCF-7 cells, and incubated at 37° C. n a humidified atmosphere of 5% CO2. Media were changed twice a week. The cells were passed every 10-12 days and replated in 75 cm^2 flasks (A.T.G.C.) at 3×10^6 cells/flask. Four days before the experiments, the cells were transferred to MEM containing 5% steroid-depleted treated FCS. The FCS had been treated overnight at 4° C. with dextran-coated charcoal (DCC)(0.1-1% w/v, DCC-FCS). The MCF-7 and T-47D cell lines used herein were deposited in accordance with the Budapest Treaty under the references MCF7_JJPRD and T47D_JJPRD on May 17, 2002 at The Belgian Co-ordinated Collections of Micro-organisms (BCCM), Laboratorium voor Moleculaire Biologie, Universiteit Gent, K. L. Ledeganckstraat 35, B-9000 Gent, Belgium and are publicly available under accession numbers LMBP 5862CB and LMBP 5863CB, respectively.
(§3) Preconfluent cells were incubated for 4 hours at 37° C. in MEM-DCC-FCS with the addition of 5×10^−9 mol/l of [^3H]-E1S, alone (control cells) or in combination with the different compounds: NGMN or MPA, dissolved in ethanol (final concentration <0.2%), at a range of concentrations of 5×10^−5-5×10^−9 mol/l. Control cells received ethanol vehicle only. After 24 hours, the medium was removed, the cells washed twice with ice-cold Hank's Buffered Saline Solution (HBSS, calcium-magnesium-free)(A.T.G.C.) and harvested by scraping. After centrifugation, the pallet was treated with 80% ethanol and the radioactivity extracted for at least 24 h at −20° C. The cellular radioactivity uptake was determined in the ethanolic supernatant and the DNA content in the remaining pellet was evaluated according to Burton Biochem Journal 62:315-323, 1956. [^14C]-E2 (5,000 dpm) was added to monitor analytical losses and unlabeled E1and E2 (50 μg) were used as carriers and reference indicators. In the total ethanolic extracts, E2 was isolated by thin layer chromatography (TLC) on silica gel 60F254 (Merck, Darmstadt, Germany), developed with chloroformi-ethylacetate (4:1, v/v) system. After visualization of the estrogens under U.V. at 254 nm, the appropriate areas were cut off into small pieces, placed in liquid scintillation vials with ethanol (0.5 ml) and allowed to extract for […]. Three ml of Opti-fluor (Packard, Rungis, France) were added and the vials were analyzed for ^3H and ^14C contents with quench correction by external standarization. The quantitative evaluation of E2 was calculated as a percentage of the total radioactivity associated with the cells and then expressed as fmol of E2 formed/mg DNA from E1S.
(§4) Data are expressed as the mean±standard error of the mean (SEM) values. Student's t-test was used to assess the significance of the differences between means; p values ≦0.05_were considered significant. […]

Data set [2] concerns conversion of E1S to E2 (sulfatase activity) in MCF-7 breast cancer cell line. Description: Conversion of [3H]-E1S to E2 in MCF-7 human mammary cancer cells. As to conditions: for inhibition at 0.005 µM / inhibition at 0.5 µM / inhibition at 50 µM / IC50: Homo sapiens; for inhibition at 0.005 µM: MCF7, compound conc 0.005 × 10^−6 mol/l; for inhibition at 0.005 µM / inhibition at 0.5 µM / inhibition at 50 µM: mean ± SEM; for inhibition at 0.5 µM: MCF7, compound conc 0.5 × 10^−6 mol/l; for inhibition at 50 µM: MCF7, compound conc 50 × 10^−6 mol/l; for IC50: MCF7, non-linear regression analysis; for E2 formed: 5×10^−9 mol/l [3H]-E1S, control 2185 ± 101. It counts as cell-based. As for the experimental part: as §1, §2, §3, §4

For data set [3] the following is noted: humans; major metabolite; cited from earlier work.
The mark [4] stands for this setting: compound conc 0.005 × 10^−6 mol/l.
[5] abbreviates: compound conc 0.5 × 10^−6 mol/l.
Setting [6] is: compound conc 0.005 × 10^−6 mol/l, mean of 3 experiments.

Usually inhibition stands for how much of the control response was suppressed. Usually IC50 stands for the midpoint of a concentration-inhibition curve. With `C#C[C@]1(O)CC[C@H]2[C@@H]3CCC4=C/C(=N/O)CC[C@@H]4[C@H]3CC[C@@]21CC` [NGMN, 13-ethyl-17-hydroxy-18,19-dinor-17α-pregn-4-en-20-yn-3-one oxime], the inhibition at 0.005 µM was 43% in data set [1] (setting [4]) and 25% in data set [2]. Moreover, the inhibition at 0.5 µM in data set [1] (setting [5]) was 74%; in data set [2], 57%. Also, the inhibition at 50 µM was 97% in data set [1] (compound conc 50 × 10^−6 mol/l) and 96% in data set [2]. For the same compound, the values for the IC50 in data set [1] and in data set [2] were 0.0127 µM and 0.178 µM, respectively. In addition, the E2 formed in data set [1] (setting [6]) came out at 1029 fmol/mg DNA; in data set [1] (setting [5]) it was 469 fmol/mg DNA; in data set [1] (compound conc 50 × 10^−6 mol/l), 54 fmol/mg DNA; in data set [2] (setting [4]), 1639 fmol/mg DNA; in data set [2] (setting [5]) it was 940 fmol/mg DNA; in data set [2] (compound conc 50 × 10^−6 mol/l), 87 fmol/mg DNA.

For the compound `C#C[C@]1(OC(C)=O)CC[C@H]2[C@@H]3CCC4=CC(=NO)CC[C@@H]4[C@H]3CC[C@@]21CC` (mixture of isomers) [norgestimate], the “fraction of norgestimate converted to norelgestromin in vivo” value in data set [3] was at least 80%.

Turning to `CC(=O)O[C@]1(C(C)=O)CC[C@H]2[C@@H]3C[C@H](C)C4=CC(=O)CC[C@]4(C)[C@H]3CC[C@@]21C` [MPA, 17α-acetoxy-6α-methylprogesterone], the inhibition at 0.005 µM in data set [1] (setting [4]) was 31%; in data set [2], 6%. Moreover, the values for the inhibition at 0.5 µM in data set [1] (setting [5]) and in data set [2] were 47% and 20%, respectively. The results for the inhibition at 50 µM in data set [1] (compound conc 50 × 10^−6 mol/l) and in data set [2] were 61% and 63%, respectively. In addition, the IC50 in data set [1] came out at 2.15 µM; in data set [2], 26.1 µM. Further, the E2 formed is 1245 fmol/mg DNA in data set [1] (setting [6]); 957 fmol/mg DNA in data set [1] (setting [5]); 704 fmol/mg DNA in data set [1] (compound conc 50 × 10^−6 mol/l); 2054 fmol/mg DNA in data set [2] (setting [4]); 1748 fmol/mg DNA in data set [2] (setting [5]); 808 fmol/mg DNA in data set [2] (compound conc 50 × 10^−6 mol/l).
